Data: patent US20090239845A1, “PYRAZOLE COMPOUNDS AS PROSTAGLANDIN RECEPTORS LIGANDS” (priority 2005, published 2009)
Counter-ions that a name gives are not always drawn.

The molecules below were run against T1, human EP1 receptor (Homo sapiens, UniProt P34995) (assay: human EP1 calcium mobilisation assay). Settings: negative logarithm10 of the antagonist dissociation constant; CHO-K1 cells, PGE2; free bases or sodium salts; averages of a number of experiments; read-out: functional pKi value (converted).
T1 construct: expressed in transfected cells; host or cells: CHO-K1
T1 sequence (P34995 1-402): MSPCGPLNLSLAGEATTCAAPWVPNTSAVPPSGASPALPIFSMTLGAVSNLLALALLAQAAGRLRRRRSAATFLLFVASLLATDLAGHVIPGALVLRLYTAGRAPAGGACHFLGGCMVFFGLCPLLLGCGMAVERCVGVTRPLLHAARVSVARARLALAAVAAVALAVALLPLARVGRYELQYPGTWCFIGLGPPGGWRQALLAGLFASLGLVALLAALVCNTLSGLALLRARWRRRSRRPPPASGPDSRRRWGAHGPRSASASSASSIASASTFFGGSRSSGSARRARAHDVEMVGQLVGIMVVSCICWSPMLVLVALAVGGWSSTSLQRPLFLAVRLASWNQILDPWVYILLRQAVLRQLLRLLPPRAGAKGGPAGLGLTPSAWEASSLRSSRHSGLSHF
Type: cell-based
A Ki of over 1 µM was found for `Cc1cc(NC(=O)OC(C)(C)C)nn1Cc1cc(Br)ccc1OCc1ccc(F)cc1F` [Example 6, 1,1-Dimethylethyl {1-[(5-bromo-2-{[(2,4-difluorophenyl)methyl]oxy}phenyl)methyl]-5-methyl-1H-pyrazol-3-yl}carbamate] in this work. A Ki of over 1 µM was found for `Cc1cc(NC(=O)OC(C)C)nn1Cc1cc(Br)ccc1OCc1ccc(Cl)cc1Cl` [Example 9, 1-Methylethyl {1-[(5-bromo-2-{[(2,4-dichlorophenyl)methyl]oxy}phenyl)methyl]-5-methyl-1H-pyrazol-3-yl]carbamate] in this work. A Ki of over 1 µM was found for `Cc1cc(NC(=O)Cc2ccccc2)nn1Cc1cc(Cl)ccc1OCc1cc(F)c(F)cc1F` [Example 126, N-{1-[(5-Chloro-2-{[(2,4,5-trifluorophenyl)methyl]oxy}phenyl)methyl]-5-methyl-1H-pyrazol-3-yl}-2-phenylacetamide] in this work.

These molecules were tested against T2, human prostanoid EP1 receptor (Homo sapiens, UniProt P34995) (assay: Binding assay for the human prostanoid EP1 receptor (competition with [3H]-PGE2)). Settings: negative logarithm10 of the IC50; competition with [3H]-PGE2, CHO-K1 cell membranes; averages of a number of experiments; read-out: pIC50 value (converted).
T2 construct: expressed in transfected cells; host or cells: CHO-K1 (membrane fraction)
T2 sequence (P34995 1-402): T1 sequence (P34995 1-402)
Description: Competition assay using [^3H]-PGE2.
Compound potencies are determined using a radioligand binding assay. In this assay compound potencies are determined from their ability to compete with tritiated prostaglandin E2 ([^3H]-PGE2) for binding to the human EP1 receptor.
This assay utilises Chinese hamster ovary-K1 (CHO-K1) cells into which a stable vector containing the EP1 cDNA has previously been transfected. Cells are cultured in suitable flasks containing culture medium such as DMEM:F-12 supplemented with 10% v/v foetal calf serum, 2 mM L-glutamine, 0.25 mg/ml geneticin, 10 μg/ml puromycin and 10 μM indomethacin.
Cells are detached from the culture flasks by incubation in calcium and magnesium free phosphate buffered saline containing 1 mM disodium ethylenediaminetetraacetic acid (Na2EDTA) and 10 μM indomethacin for 5 min. The cells are isolated by centrifugation at 250×g for 5mins and suspended in an ice cold buffer such as 50 mM Tris, 1 mM Na2EDTA, 140 mM NaCl, 10 μM indomethacin (pH 7.4). The cells are homogenised using a Polytron tissue disrupter (2×10s burst at full setting), centrifuged at 48,000×g for 20mins and the pellet containing the membrane fraction is washed (optional) three times by suspension and centrifugation at 48,000×g for 20mins. The final membrane pellet is suspended in an assay buffer such as 10 mM 2-[N-morpholino]ethanesulphonic acid, 1 mM Na2EDTA, 10 mM MgCl2 (pH 6). Aliquots are frozen at −80° C. until required.
For the binding assay the cell membranes, competing compounds and [^3H]-PGE2 (3 nM final assay concentration) are incubated in a final volume of 100 μl for 30 min at 30° C. All reagents are prepared in assay buffer. Reactions are terminated by rapid vacuum filtration over GF/B filters using a Brandell cell harvester. The filters are washed with ice cold assay buffer, dried and the radioactivity retained on the filters is measured by liquid scintillation counting in Packard TopCount scintillation counter.
The data are analysed using non linear curve fitting techniques to determine the concentration of compound producing 50% inhibition of specific binding (IC50).
An IC50 of at most 0.01 µM was found for `Cc1cc(-c2nc3ncccc3[nH]2)nn1Cc1cc(Cl)ccc1OCC(C)C` [Example 372, 2-[1-({5-Chloro-2-[(2-methylpropyl)oxy]phenyl}methyl)-5-methyl-1H-pyrazol-3-yl]-1H-imidazo[4,5-b]pyridine hydrochloride] in this work. An IC50 of at most 0.01 µM was found for `Cc1noc(C)c1S(=O)(=O)NC(=O)c1cc(C)n(Cc2cc(Cl)ccc2OCc2ccccc2)n1` [Example 356, 1-({5-Chloro-2-[(phenylmethyl)oxy]phenyl}methyl)-N-[(3,5-dimethyl-4-isoxazolyl)sulfonyl]-5-methyl-1H-pyrazole-3-carboxamide] in this work. An IC50 of at most 0.01 µM was found for `Cc1cc(NC(=O)OC(C)(C)C)nn1Cc1cc(Br)ccc1OCc1ccc(F)cc1F` [Example 6, 1,1-Dimethylethyl {1-[(5-bromo-2-{[(2,4-difluorophenyl)methyl]oxy}phenyl)methyl]-5-methyl-1H-pyrazol-3-yl}carbamate] in this work. An IC50 of at most 0.01 µM was found for `Cc1cc(NC(=O)OC(C)C)nn1Cc1cc(Br)ccc1OCc1ccc(Cl)cc1Cl` [Example 9, 1-Methylethyl {1-[(5-bromo-2-{[(2,4-dichlorophenyl)methyl]oxy}phenyl)methyl]-5-methyl-1H-pyrazol-3-yl]carbamate] in this work. An IC50 of at most 0.01 µM was found for `Cc1cc(C(=O)Nc2ccc(CN3CCOCC3)cc2)nn1Cc1cc(Cl)ccc1OCC(C)C` [Example 398, 1-({5-Chloro-2-[(2-methylpropyl)oxy]phenyl}methyl)-5-methyl-N-[4-(4-morpholinylmethyl)phenyl]-1H-pyrazole-3-carboxamide hydrochloride] in this work. An IC50 of at most 0.01 µM was found for `Cc1cc(NC(=O)c2cccc3ccccc23)nn1Cc1cc(Cl)ccc1OCc1ccccc1` [Example 160, N-[1-({5-Chloro-2-[(phenylmethyl)oxy]phenyl}methyl)-5-methyl-1H-pyrazol-3-yl]-1-naphthalenecarboxamide] in this work. An IC50 of at most 0.01 µM was found for `Cc1cc(NC(=O)CC(C)(C)C)nn1Cc1cc(Cl)ccc1OCc1ccccc1` [Example 109, N-[1-({5-Chloro-2-[(phenylmethyl)oxy]phenyl}methyl)-5-methyl-1H-pyrazol-3-yl]-3,3-dimethylbutanamide] in this work. An IC50 of at most 0.01 µM was found for `Cc1cc(NC(=O)Cc2ccccc2)nn1Cc1cc(Cl)ccc1OCc1cc(F)c(F)cc1F` [Example 126, N-{1-[(5-Chloro-2-{[(2,4,5-trifluorophenyl)methyl]oxy}phenyl)methyl]-5-methyl-1H-pyrazol-3-yl}-2-phenylacetamide] in this work. An IC50 of at most 0.01 µM was found for `Cc1cc(NC(=O)Cc2ccccn2)nn1Cc1cc(Cl)ccc1OCc1ccc(Cl)cc1F` [Example 118, N-{1-[(5-Chloro-2-{[(4-chloro-2-fluorophenyl)methyl]oxy}phenyl)methyl]-5-methyl-1H-pyrazol-3-yl}-2-(2-pyridinyl)acetamide] in this work. An IC50 of at most 0.01 µM was found for `Cc1cc(NC(=O)CC(C)(C)C)nn1Cc1cc(Cl)ccc1OCc1ccc(Cl)cc1` [Example 137, N-{1-[(5-Chloro-2-{[(4-chlorophenyl)methyl]oxy}phenyl)methyl]-5-methyl-1H-pyraozl-3-yl}-3,3-dimethylbutanamide] in this work. An IC50 of at most 0.01 µM was found for `Cc1cc(NC(=O)OC2CCOCC2)nn1Cc1cc(Br)ccc1OCc1ccc(Cl)cc1Cl` [Example 30, Tetrahydro-2H-pyran-4-yl {1-[(5-bromo-2-{[(2,4-dichlorophenyl)methyl]oxy}phe-nyl)methyl]-5-methyl-1H-pyrazol-3-yl}carbamate] in this work. An IC50 of at most 0.01 µM was found for `Cc1cc(C(=O)Nc2ccc(CN(C)C)cc2)nn1Cc1cc(Cl)ccc1OCc1ccccc1` [Example 346, 1-({5-Chloro-2-[(phenylmethyl)oxy]phenyl}methyl)-N-{4-[(dimethylamino)methyl]phe-nyl}-5-methyl-1H-pyrazole-3-carboxamide hydrochloride] in this work. An IC50 of at most 0.01 µM was found for `Cc1cc(NC(=O)CC(C)(C)C)nn1Cc1cc(Cl)ccc1OCc1ccc(F)cc1Cl` [Example 133, N-{1-[(5-Chloro-2-{[(2-chloro-4-fluorophenyl)methyl]oxy}phenyl)methyl]-5-methyl-1H-pyrazol-3-yl}-3,3-dimethylbutanamide] in this work. An IC50 of at most 0.01 µM was found for `Cc1cc(-c2nc3ccc(N4CCN(C)CC4)cc3[nH]2)nn1Cc1cc(Cl)ccc1OCC(C)C` [Example 375, 2-[1-({5-Chloro-2-[(2-methylpropyl)oxy]phenyl}methyl)-5-methyl-1H-pyrazol-3-yl]-5-(4-methyl-1-piperazinyl)-1H-benzimidazole trihydrochloride] in this work. An IC50 of at most 0.01 µM was found for `Cc1cc(-c2nc3ccc(N(C)C)cc3[nH]2)nn1Cc1cc(Cl)ccc1OCC(C)C` [Example 473, 2-[1-({5-Chloro-2-[(2-methylpropyl)oxy]phenyl}methyl)-5-methyl-1H-pyrazol-3-yl]-N,N-dimethyl-1H-benzimidazol-5-amine dihydrochloride] in this work. An IC50 of at most 0.01 µM was found for `Cc1cc(NC(=O)OC(C)C)nn1Cc1cc(Br)ccc1OCc1ccc(F)cc1F` [Example 7, 1-Methylethyl {1-[(5-bromo-2-{[(2,4-difluorophenyl)methyl]oxy}phenyl)methyl]-5-methyl-1H-pyrazol-3-yl}carbamate] in this work. An IC50 of at most 0.01 µM was found for `Cc1cc(C(=O)Nc2ccc(CN3CCNC(=O)C3)cc2)nn1Cc1cc(Cl)ccc1OCC(C)C` [Example 399, 1-({5-Chloro-2-[(2-methylpropyl)oxy]phenyl}methyl)-5-methyl-N-{4-[(3-oxo-1-piperazinyl)methyl]phenyl}-1H-pyrazole-3-carboxamide hydrochloride] in this work. An IC50 of at most 0.01 µM was found for `Cc1cc(C(=O)Nc2ccc(CNC(C)C)cc2)nn1Cc1cc(Cl)ccc1OCC(C)C` [Example 395, 1-({5-Chloro-2-[(2-methylpropyl)oxy]phenyl}methyl)-5-methyl-N-(4-{[(1-methylethyl)amino]methyl}phenyl)-1H-pyrazole-3-carboxamide hydrochloride] in this work. An IC50 of at most 0.01 µM was found for `Cc1cc(C(=O)NS(=O)(=O)c2ccccc2)nn1Cc1cc(Cl)ccc1OCc1ccccc1` [Example 355, 1-({5-Chloro-2-[(phenylmethyl)oxy]phenyl}methyl)-5-methyl-N-(phenylsulfonyl)-1H-pyrazole-3-carboxamide] in this work. An IC50 of at most 0.01 µM was found for `Cc1cc(NC(=O)CC(C)(C)C)nn1Cc1cc(Cl)ccc1OCc1ccc(F)cc1F` [Example 132, N-{1-[(5-Chloro-2-{[(2,4-difluorophenyl)methyl]oxy}phenyl)methyl]-5-methyl-1H-pyrazol-3-yl}-3,3-dimethylbutanamide] in this work.
